Laboratory results from the supplement of paper PMC10307832.

Legend:
Assay in all cases: relative viability (nuclei count vs DMSO), 5 days (fraction); higher = more cells survive
[1] = compound: Cc1ccc2nc(NCCN)c3ncc(C)n3c2c1 + COc1cc2c(Oc3ccc(NC(=O)C4(C(=O)Nc5ccc(F)cc5)CC4)cc3F)ccnc2cc1OCCCN1CCOCC1 [Foretinib] (partner 0.25 µM)
Summary of the method: (§1)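 Values are medians from duplicate plates. Each reflects relative viability, defined as the nuclei count of treated wells over that of vehicle wells. Lung cancer cell lines in 1536-well plates were pin-tool dosed one day after seeding with one drug alone or with a fixed anchor-drug dose plus five library-drug doses (not always all listed) in √10 steps, then fixed, stained and imaged at 4× after 5 days.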

[2] = compound: Cc1ccc2nc(NCCN)c3ncc(C)n3c2c1 + Nc1ncn([C@H]2C[C@H](O)[C@@H](CO)O2)c(=O)n1 [Decitabine] (partner 2 µM)
Summary of the method: as §1

Salubrinal + Navitoclax = compound: O=C(/C=C/c1ccccc1)NC(NC(=S)Nc1cccc2cccnc12)C(Cl)(Cl)Cl [Salubrinal] + CC1(C)CCC(c2ccc(Cl)cc2)=C(CN2CCN(c3ccc(C(=O)NS(=O)(=O)c4ccc(N[C@H](CCN5CCOCC5)CSc5ccccc5)c(S(=O)(=O)C(F)(F)F)c4)cc3)CC2)C1 [Navitoclax] (partner 0.5 µM)
Summary of the method: as §1

Salubrinal + Decitabine = compound: O=C(/C=C/c1ccccc1)NC(NC(=S)Nc1cccc2cccnc12)C(Cl)(Cl)Cl [Salubrinal] + Nc1ncn([C@H]2C[C@H](O)[C@@H](CO)O2)c(=O)n1 [Decitabine] (partner 2 µM)
Summary of the method: as §1

Row | Cell Line | relative viability ([1]; first compound 0.04 µM) | relative viability ([1]; first compound 0.1265 µM) | relative viability ([1]; first compound 0.4 µM) | relative viability ([1]; first compound 1.265 µM) | relative viability ([1]; first compound 4 µM) | relative viability ([2]; first compound 0.04 µM) | relative viability ([2]; first compound 0.1265 µM) | relative viability ([2]; first compound 0.4 µM) | relative viability ([2]; first compound 1.265 µM) | relative viability ([2]; first compound 4 µM) | relative viability (Salubrinal + Navitoclax; first compound 0.08 µM) | relative viability (Salubrinal + Navitoclax; first compound 0.253 µM) | relative viability (Salubrinal + Navitoclax; first compound 0.8 µM) | relative viability (Salubrinal + Navitoclax; first compound 2.53 µM) | relative viability (Salubrinal + Navitoclax; first compound 8 µM) | relative viability (Salubrinal + Decitabine; first compound 0.08 µM) | relative viability (Salubrinal + Decitabine; first compound 0.253 µM) | relative viability (Salubrinal + Decitabine; first compound 0.8 µM) | relative viability (Salubrinal + Decitabine; first compound 2.53 µM) | relative viability (Salubrinal + Decitabine; first compound 8 µM)
1 | NCI-H2087 | 1.13 | 1.08 | 1.11 | 1.05 | 1.09 | 0.308 | 0.362 | 0.249 | 0.285 | 0.299 | 1.04 | 1.02 | 1.11 | 0.964 | 0.945 | 0.448 | 0.266 | 0.295 | 0.277 | 0.257
2 | HCC-366 | 0.914 | 0.945 | 0.934 | 0.945 | 0.917 | 0.349 | 0.362 | 0.302 | 0.357 | 0.34 | 1.27 | 0.871 | 0.985 | 0.975 | 0.971 | 0.371 | – | 0.374 | 0.392 | 0.301
3 | NCI-H727 | 1.23 | 0.778 | 0.894 | 0.911 | 1.18 | 0.976 | – | 0.995 | 0.84 | 0.797 | 0.519 | 0.482 | 0.443 | 0.395 | 0.474 | 0.802 | 0.876 | 0.847 | 0.837 | 0.825
4 | LU99A | 0.884 | 0.796 | 0.805 | 0.921 | 0.83 | 1 | 0.922 | 0.91 | 0.812 | 0.833 | 0.942 | 0.864 | 0.798 | 0.858 | 0.828 | 1.05 | 0.844 | 0.938 | 0.951 | 0.757
5 | NCI-H647 | 1.06 | 1.18 | 1.23 | 1.15 | 0.912 | 0.508 | 0.362 | 0.43 | 0.421 | 0.335 | 1.31 | 1.12 | 1.22 | 1.07 | 1.03 | 0.389 | 0.452 | 0.451 | 0.443 | 0.552
6 | HCC-78 | 0.579 | 0.584 | 0.493 | 0.626 | 0.558 | 0.745 | 0.711 | 0.735 | 0.664 | 0.617 | 0.851 | 0.835 | 0.982 | 0.764 | 0.769 | 0.735 | 0.661 | 0.816 | 0.606 | 0.624
7 | NCI-H1755 | 0.936 | 0.84 | 0.919 | 0.928 | 0.876 | 0.716 | 0.764 | 0.681 | 0.7 | 0.723 | 1.04 | 0.983 | 0.928 | 1.05 | 0.969 | 0.759 | 0.686 | 0.744 | 0.725 | 0.68
8 | NCI-H3122 | 0.928 | 0.981 | 0.924 | 1.07 | 0.875 | 0.4 | 0.449 | 0.377 | 0.541 | 0.421 | 1.09 | 1.01 | 1.06 | 1.06 | 1.09 | 0.399 | 0.443 | 0.51 | 0.461 | 0.442
9 | PC-14 | 0.944 | 0.908 | 0.984 | 0.933 | 0.943 | 0.227 | 0.237 | 0.247 | 0.179 | 0.148 | 1.05 | 1.01 | 1 | 1.07 | 0.864 | 0.211 | 0.228 | 0.201 | 0.189 | 0.236
10 | SK-MES-1 | 1.04 | 0.91 | 1.01 | 0.853 | 0.875 | 0.36 | 0.462 | 0.421 | 0.445 | 0.398 | 1.39 | 1.12 | 1.33 | 1.24 | 1.12 | 0.405 | 0.359 | 0.365 | 0.356 | 0.495
11 | NCI-H2347 | 1.2 | 0.741 | 1.02 | 0.869 | 0.792 | 0.605 | 0.664 | 0.603 | 0.645 | 0.585 | 0.928 | 0.86 | 0.75 | 0.728 | 0.864 | 0.598 | 0.571 | 0.663 | 0.649 | 0.661
12 | EKVX | 0.987 | 1.04 | 0.866 | 0.822 | 0.777 | 0.335 | 0.35 | 0.345 | 0.32 | 0.28 | 0.958 | 0.983 | 0.911 | 1.08 | 1.06 | 0.367 | 0.366 | 0.482 | 0.286 | 0.331
13 | HOP-62 | 1.05 | 1.07 | 1.1 | 1.13 | 1.02 | 0.24 | 0.209 | 0.241 | 0.177 | 0.234 | 1.04 | 0.822 | 1.09 | 1.01 | 0.958 | 0.192 | 0.206 | 0.196 | 0.187 | 0.224
14 | NCI-H2126 | 1.41 | 1.07 | 1.18 | 1.2 | 1.14 | 0.6 | 0.571 | 0.62 | 0.599 | 0.563 | 0.897 | 0.913 | 0.914 | 0.808 | 0.867 | 0.605 | 0.547 | 0.589 | 0.563 | 0.559
15 | SW 1573 | 1.02 | 0.966 | 1.09 | 0.945 | 0.859 | 0.593 | 0.497 | 0.547 | 0.637 | 0.37 | 1.02 | 1 | 0.937 | 0.929 | 1.01 | 0.697 | 0.372 | 0.609 | 0.488 | 0.555
16 | NCI-H1944 | 0.896 | 0.862 | 0.773 | 0.9 | 0.958 | 0.377 | 0.428 | 0.436 | 0.418 | 0.422 | 1.07 | 1.08 | 1.12 | 1.04 | 1.05 | 0.445 | 0.452 | 0.43 | 0.476 | 0.428
17 | EPLC-272H | 0.664 | 0.809 | 0.64 | 0.75 | 0.692 | 0.386 | 0.386 | 0.395 | 0.341 | 0.327 | 1.23 | 1.02 | 1.4 | 1.19 | 1.04 | 0.403 | 0.373 | 0.369 | 0.405 | 0.362
18 | PC-3 [JPC-3] | 1.1 | 1.04 | 0.934 | 0.986 | 1.09 | 0.831 | 0.889 | 0.854 | 0.846 | 0.761 | 0.859 | 0.768 | 0.846 | 0.766 | 0.766 | 0.848 | 0.836 | 0.891 | 0.848 | 0.81
19 | NCI-H838 | 1.16 | 1.08 | 1.04 | 1.02 | 0.982 | 0.494 | 0.461 | 0.428 | 0.44 | 0.427 | 1.35 | 1.21 | 1.22 | 1.15 | 1.23 | 0.493 | 0.471 | 0.462 | 0.417 | 0.464
20 | COR-L 105 | 1.18 | 0.995 | 0.86 | 0.987 | 1.15 | 0.758 | 0.738 | 0.722 | 0.673 | 0.632 | 0.715 | 0.718 | 0.76 | 0.765 | 0.723 | 0.807 | 0.693 | 0.655 | 0.712 | 0.534
21 | NCI-H2405 | 1.05 | 1.04 | 1.05 | 0.978 | 0.986 | 0.706 | 0.713 | 0.747 | 0.728 | 0.741 | 0.942 | 0.957 | 0.793 | 0.82 | 0.905 | 0.726 | 0.726 | 0.754 | 0.757 | 0.729
22 | NCI-H1395 | 0.998 | 0.971 | 0.947 | 0.722 | 0.989 | 0.616 | 0.708 | 0.713 | 0.669 | 0.607 | 1.08 | 1.26 | 1.12 | 1.06 | 1.29 | 0.792 | 0.686 | 0.707 | 0.67 | 0.692
23 | NCI-H1915 | 1.11 | 1.06 | – | 1.12 | 1.03 | 0.265 | 0.248 | 0.267 | 0.253 | 0.238 | 0.774 | 0.778 | 0.83 | 0.759 | 0.774 | 0.249 | – | 0.268 | 0.248 | 0.246
24 | LXF-289 | 0.95 | 1 | 0.955 | 0.992 | 0.958 | 0.388 | 0.409 | 0.365 | 0.353 | 0.423 | 0.99 | 0.898 | 1.04 | 0.943 | 0.868 | 0.338 | 0.382 | 0.357 | 0.43 | 0.405
25 | NCI-H460 | 0.982 | 0.901 | 0.955 | 0.928 | 0.965 | 0.479 | 0.494 | 0.5 | 0.501 | 0.434 | 1.43 | 0.487 | 1.45 | 1.17 | 1.03 | 0.517 | 0.461 | 0.475 | 0.379 | 0.444
26 | A549 | 1.08 | 0.85 | 0.975 | 0.921 | 0.855 | 0.281 | 0.238 | 0.207 | 0.299 | 0.219 | 1.4 | 1.11 | 1.22 | 1.21 | 1.21 | – | 0.253 | 0.245 | 0.257 | 0.246
27 | NCI-H2009 | 1.22 | 1.23 | 1.24 | 1.23 | 1.04 | 0.364 | 0.394 | 0.436 | 0.395 | 0.368 | 1.16 | 1.18 | 1.19 | 1.17 | 1.07 | 0.414 | 0.396 | 0.426 | 0.384 | 0.384
